# US9255073B2, “1-benzyl-3-hydroxymethylindazole derivatives and use thereof in the treatment of diseases based on the expression of MCP-1, CX3CR1 and p40” (AZIENDE CHIM. RIUN. ANG. FRANC. A.C.R.A.F. S.p.A., priority 2008, dated 2016)
# Structures can show the parent of a compound that is named as a salt.
# Tests used:
# MCP-1 [1] = experiment: Gene expression of MCP-1 in LPS-stimulated MonoMac6 cells (real-time RT-PCR); assay type: cell-based, human; details: MonoMac6, 1 h preincubation, LPS 100 ng/ml 4 h
# Procedure: (§1) The capacity of the compounds to inhibit the expression of MCP-1 by lipopolysaccharide (LPS)-stimulated MonoMac6 cells was evaluated. The cells were placed in 96-well plates at a concentration of 50 000 cells/well. The compounds were tested at the maximum soluble concentration given in Table 1 (in the range 30-300 μM) and incubated for 1 hour. The cells were then stimulated with LPS (100 ng/ml) for 4 hours.
# (§2) The total RNA was extracted from the cell pellet using the RNeasy mini kit (Qiagen), reverse-transcribed with the TaqMan Reverse transcription reagents synthesis kit (Applied Biosystems) and the cDNA obtained was used for the real-time PCR reaction. The amplification was obtained in 96-well plates using the ABI Prism 7000 sequence detection system (Applied Biosystems), by applying the following temperature profile: 50° C. for 2 minutes, 95° C. for 10 minutes and 45 cycles at 95° C. for 15 seconds and 60° C. for 1 minute. For the amplification, a set of primers and probe specific for human MCP-1 was used (Applied Biosystems, RefSeq NM_002982.3). A set of primers and probe for β-actin was used in separate wells as an internal control of the samples for the purposes of normalization. Once the reaction had taken place, the fluorescence data were analysed using the ABI Prism 7000 SDS software, by calculating the threshold cycle (Ct) for each sample and subsequently performing a relative quantification via the ΔΔCt method.
# MCP-1 [2] = experiment: Production of MCP-1 protein by LPS-stimulated MonoMac6 cells (ELISA); assay type: cell-based; details: Homo sapiens, MONO-MAC-6, MonoMac6, 1 h preincubation, LPS 100 ng/ml 20 h, ELISA of supernatant; for inhibition at 150 µM: 150 μM (maximum soluble concentration); for inhibition at 75 µM: 75 μM (maximum soluble concentration); for inhibition at 30 µM: 30 μM (maximum soluble concentration)
# Procedure: as §1, with “expression of the protein MCP-1 by” for “expression of MCP-1 by”, “in Table 2 (in the” for “in Table 1 (in the”, “ng/ml) for 20 hours.” for “ng/ml) for 4 hours.”
# The amount of MCP-1 produced was measured in the supernatants, suitably diluted with buffer, by means of an immunoenzymatic test (ELISA) using a commercial kit (ELISA MCP-1/JE, R&D Systems).
# CX3CR1 = experiment: Gene expression of CX3CR1 in LPS-stimulated MonoMac6 cells (real-time RT-PCR); assay type: cell-based, human; details: MonoMac6, 1 h preincubation, LPS 100 ng/ml 20 h
# Procedure: as §1, with “of CX3CR1” for “of MCP-1”, “Table 3” for “Table 1”, “for 20” for “for 4”
# as §2, with “CX3CR1” for “MCP-1”, “NM_001337.3).” for “NM_002982.3).”
# p40 = experiment: Gene expression of p40 in LPS-stimulated MonoMac6 cells (real-time RT-PCR); assay type: cell-based, human; details: MonoMac6, 1 h preincubation, LPS 100 ng/ml 4 h
# Procedure: as §1, with “of p40” for “of MCP-1”, “Table 4” for “Table 1”
# as §2, with “p40” for “MCP-1”, “NM_002187.2).” for “NM_002982.3).”
# [3] = 300 μM (maximum soluble concentration)
# [4] = 150 μM (maximum soluble concentration)
# [5] = 30 μM (maximum soluble concentration)
smiles,measurement,setting,value
"OCCOCc1nn(Cc2ccccc2)c2ccccc12 [Compound 13, 2-[(1-benzyl-1H-indazol-3-yl)methoxy]ethanol]",% inhibition of MCP-1 expression (mRNA),MCP-1 [1]; [3],55%
same,inhibition at 300 µM,MCP-1 [2]; [3],78%
same,melting point,,67 to 69 °C
same,% inhibition of CX3CR1 expression (mRNA),CX3CR1; [3],90%
"CN(C)CCOCc1nn(Cc2ccccc2)c2ccccc12.Cl [Compound 14, 2-[(1-benzyl-1H-indazol-3-yl)methoxy]-N,N-dimethylethanamine hydrochloride]",% inhibition of MCP-1 expression (mRNA),MCP-1 [1]; [4],52%
same,inhibition at 150 µM,MCP-1 [2],64%
same,% inhibition of CX3CR1 expression (mRNA),CX3CR1; [4],96%
"COc1ccc(Cn2nc(CO)c3ccccc32)cc1 [Compound 2, [1-(4-methoxybenzyl)-1H-indazol-3-yl]methanol]",melting point,,95 to 97 °C
"COc1ccc2c(c1)c(CO)nn2Cc1ccccc1 [Compound 9, (1-benzyl-5-methoxy-1H-indazol-3-yl)methanol]",melting point,,97 to 98 °C
"CC(C)(CN1CCOCC1)OCc1nn(Cc2ccccc2)c2ccccc12.O=C(O)/C=C\C(=O)O [Compound 18, 1-benzyl-3-[(1,1-dimethyl-2-morpholin-4-ylethoxy)methyl]-1H-indazole maleate]",% inhibition of p40 expression (mRNA),p40; 75 μM (maximum soluble concentration),39%
same,inhibition at 75 µM,MCP-1 [2],85%
same,melting point,,87 to 88 °C
"CN(C)CCCOCc1nn(Cc2ccccc2)c2ccccc12 [Compound 15, 3-[(1-benzyl-1H-indazol-3-yl)methoxy]-N,N-dimethylpropan-1-amine hydrochloride]",inhibition at 75 µM,MCP-1 [2],44%
"CC(C)(O)c1nn(Cc2ccc(Cl)cc2Cl)c2ccccc12 [Compound 11, 2-[1-(2,4-dichlorobenzyl)-1H-indazol-3-yl]propan-2-ol]",inhibition at 30 µM,MCP-1 [2],88%
"OCc1nn(Cc2ccccc2)c2ccccc12 [Compound 1, 1-benzyl-3-hydroxymethyl-indazole]",% inhibition of MCP-1 expression (mRNA),MCP-1 [1]; [4],30%
same,% inhibition of p40 expression (mRNA),p40; [4],32%
same,inhibition at 150 µM,MCP-1 [2],54%
same,% inhibition of CX3CR1 expression (mRNA),CX3CR1; [4],72%
"OCc1nn(Cc2ccc(Cl)cc2Cl)c2ccccc12 [Compound 6, [1-(2,4-dichlorobenzyl)-1H-indazol-3-yl]methanol]",inhibition at 30 µM,MCP-1 [2],54%
"Cc1cc(Cl)ccc1Cn1nc(C(C)O)c2ccccc21 (centres unmarked) [Compound 12, 1-[1-(4-chloro-2-methylbenzyl)-1H-indazol-3-yl]ethanol]",inhibition at 30 µM,MCP-1 [2],76%
"OCc1nn(Cc2ccc(Cl)cc2)c2ccccc12 [Compound 4, [1-(4-chlorobenzyl)-1H-indazol-3-yl]methanol]",inhibition at 75 µM,MCP-1 [2],85%
"Cc1cc(Cl)ccc1Cn1nc(C(C)(C)O)c2ccccc21 [Compound 10, 2-[1-(4-chloro-2-methylbenzyl)-1H-indazol-3-yl]propan-2-ol]",% inhibition of MCP-1 expression (mRNA),MCP-1 [1]; [5],72%
same,% inhibition of p40 expression (mRNA),p40; [5],65%
same,inhibition at 30 µM,MCP-1 [2],81%
same,melting point,,72 to 74 °C
same,% inhibition of CX3CR1 expression (mRNA),CX3CR1; [5],89%
"CC(C)(CO)OCc1nn(Cc2ccccc2)c2ccccc12 [Compound 17, 2-[(1-benzyl-1H-indazol-3-yl)methoxy]-2-methylpropan-1-ol]",% inhibition of MCP-1 expression (mRNA),MCP-1 [1]; [4],53%
same,% inhibition of p40 expression (mRNA),p40; [4],37%
same,inhibition at 150 µM,MCP-1 [2],82%
same,melting point,,52 to 53 °C
same,% inhibition of CX3CR1 expression (mRNA),CX3CR1; [4],88%
"Cc1cc(Cl)ccc1Cn1nc(CO)c2ccccc21 [Compound 8, [1-(4-chloro-2-methylbenzyl)-1H-indazol-3-yl]methanol]",inhibition at 30 µM,MCP-1 [2],75%
